From ChEMBL document CHEMBL5247613, “Design, synthesis and biological evaluation of a new class of Hsp90 inhibitors vibsanin C derivatives” (Eur J Med Chem, 2022)
Activity calls are given as the source filed them. The calls are words filed in the database; no cut-off is given here.

Columns and labels:
[1] = Solubility of the compound in aqueous NMR buffer; type: physicochemical
[2] = target: T1, Heat shock protein HSP90 (Homo sapiens) (UniProt P07900+P08238); test: Inhibition of HSP90 in human HL-60 cells assessed as increase in HSP27 protein expression incubated for 24 hrs by western blot analysis; type: cell-based; settings: dose 1-10 µM
[3] = Toxicity in Kunming mouse assessed as effect on liver at 5 to 500 mg/kg, ip administered as single dose by macroscopic autopsy analysis; type: organism-based; settings: in vivo, dose 5-500 mg/kg
HL-60 [4] = test: Induction of apoptosis in human HL-60 cells assessed as necrotic cells at 10 uM by AnnexinV-FITC/PI staining based flow cytometry (reference value: 0.4%); type: functional
[5] = target: T1, Heat shock protein HSP90 (Homo sapiens); test: Inhibition of HSP90 in human HL-60 cells assessed as decrease in CDK4 protein expression incubated for 24 hrs by western blot analysis; type: cell-based; settings: dose 1-10 µM
HL-60 [6] = test: Induction of apoptosis in human HL-60 cells assessed as early apoptotic cells at 10 uM by AnnexinV-FITC/PI staining based flow cytometry (reference value: 1.33%); type: functional
HL-60 [7] = test: Induction of apoptosis in human HL-60 cells assessed as increase in PARP cleavage incubated for 24 hrs by western blot analysis; type: functional, cell-based; settings: dose 1-10 µM
H22 [8] = test: Antitumor activity against mouse H22 cells xenografted in Kunming mouse assessed as reduction in tumor weight at 100 mg/kg, ip administered for 14 days; type: functional; settings: H22, 336 h, time 14 day
H22 [9] = test: Antitumor activity against mouse H22 cells xenografted in Kunming mouse assessed as reduction in tumor volume at 100 mg/kg, ip administered for 14 days; type: functional; settings: H22, 336 h, time 14 day
HL-60 [10] = test: Antiproliferative activity against human HL-60 cells assessed as reduction in cell viability incubated for 48 hrs by MTT assay; type: functional, cell-based; settings: HL-60, 48 h
[11] = Toxicity in Kunming mouse assessed as effect on sign of illness at 500 mg/kg, ip administered as single dose; type: organism-based; settings: in vivo
HL-60 [12] = test: Induction of apoptosis in human HL-60 cells assessed as early apoptotic cells at 5 uM by AnnexinV-FITC/PI staining based flow cytometry (reference value: 1.33%); type: functional
SW480 = test: Antiproliferative activity against human SW480 cells assessed as reduction in cell viability incubated for 48 hrs by MTT assay; type: functional, cell-based; settings: SW480, 48 h
HL-60 [13] = test: Induction of apoptosis in human HL-60 cells assessed as viable cells at 20 uM by AnnexinV-FITC/PI staining based flow cytometry (reference value: 89.7%); type: functional; settings: read-out: Activity
HL-60 [14] = test: Induction of apoptosis in human HL-60 cells assessed as increase in Bax protein expression at 1 to 10 uM incubated for 24 hrs by western blot analysis; type: functional, cell-based; settings: dose 1-10 µM
HL-60 [15] = test: Induction of apoptosis in human HL-60 cells assessed as late apoptotic cells at 10 uM by AnnexinV-FITC/PI staining based flow cytometry (reference value: 8.57%); type: functional
HL-60 [16] = test: Induction of apoptosis in human HL-60 cells assessed as viable cells at 10 uM by AnnexinV-FITC/PI staining based flow cytometry (reference value: 89.7%); type: functional; settings: read-out: Activity
[17] = Toxicity in Kunming mouse assessed as effect on heart at 5 to 500 mg/kg, ip administered as single dose by macroscopic autopsy analysis; type: organism-based; settings: in vivo, dose 5-500 mg/kg
Reticulocyte = test: Inhibition of HSP90 in rabbit reticulocyte lysates at 10 uM incubated for 3 hrs by denatured luciferase refolding assay; type: subcellular; settings: Oryctolagus cuniculus
HL-60 [18] = test: Induction of apoptosis in human HL-60 cells assessed as early apoptotic cells at 1 uM by AnnexinV-FITC/PI staining based flow cytometry (reference value: 1.33%); type: functional
[19] = Toxicity in Kunming mouse assessed as normal animal behaviour at 500 mg/kg, ip administered as single dose; type: organism-based; settings: in vivo
[20] = Inhibition of HSP90 in rabbit reticulocyte lysates incubated for 3 hrs by denatured luciferase refolding assay; type: subcellular, Oryctolagus cuniculus
[21] = Toxicity in Kunming mouse assessed as injury at 500 mg/kg, ip administered as single dose; type: organism-based; settings: in vivo
HL-60 [22] = test: Induction of apoptosis in human HL-60 cells assessed as viable cells at 5 uM by AnnexinV-FITC/PI staining based flow cytometry (reference value: 89.7%); type: functional; settings: read-out: Activity
HL-60 [23] = test: Induction of apoptosis in human HL-60 cells assessed as increase in caspase-3 cleavage incubated for 24 hrs by western blot analysis; type: functional, cell-based; settings: dose 1-10 µM
SMMC-7721 = test: Antiproliferative activity against human SMMC-7721 cells assessed as reduction in cell viability incubated for 48 hrs by MTT assay; type: functional, cell-based; settings: SMMC-7721, 48 h
[24] = Toxicity in Kunming mouse assessed as pain at 500 mg/kg, ip administered as single dose; type: organism-based; settings: in vivo
HL-60 [25] = test: Induction of apoptosis in human HL-60 cells assessed as viable cells at 1 uM by AnnexinV-FITC/PI staining based flow cytometry (reference value: 89.7%); type: functional; settings: read-out: Activity
[26] = Toxicity in Kunming mouse xenografted with mouse H22 cells assessed as body weight loss at 100 mg/kg, ip administered for 14 days; type: organism-based; settings: in vivo, 336 h, time 14 day
HL-60 [27] = test: Induction of apoptosis in human HL-60 cells assessed as late apoptotic cells at 1 uM by AnnexinV-FITC/PI staining based flow cytometry (reference value: 8.57%); type: functional
HL-60 [28] = test: Induction of apoptosis in human HL-60 cells assessed as late apoptotic cells at 20 uM by AnnexinV-FITC/PI staining based flow cytometry (reference value: 8.57%); type: functional
HL-60 [29] = test: Induction of apoptosis in human HL-60 cells assessed as necrotic cells at 20 uM by AnnexinV-FITC/PI staining based flow cytometry (reference value: 0.4%); type: functional
[30] = Toxicity in Kunming mouse assessed as effect on physical appearance at 500 mg/kg, ip administered as single dose; type: organism-based; settings: in vivo
HL-60 [31] = test: Induction of apoptosis in human HL-60 cells assessed as decrease in Bcl2 protein expression at 1 to 10 uM incubated for 24 hrs by western blot analysis; type: functional, cell-based; settings: dose 1-10 µM
[32] = Toxicity in Kunming mouse assessed as effect on feeding habits at 500 mg/kg, ip administered as single dose; type: organism-based; settings: in vivo
HL-60 [33] = test: Induction of apoptosis in human HL-60 cells assessed as early apoptotic cells at 20 uM by AnnexinV-FITC/PI staining based flow cytometry (reference value: 1.33%); type: functional
HL-60 [34] = test: Induction of apoptosis in human HL-60 cells assessed as late apoptotic cells at 5 uM by AnnexinV-FITC/PI staining based flow cytometry (reference value: 8.57%); type: functional
A549 = test: Antiproliferative activity against human A549 cells assessed as reduction in cell viability incubated for 48 hrs by MTT assay; type: functional, cell-based; settings: A549, 48 h
MCF7 = test: Antiproliferative activity against human MCF7 cells assessed as reduction in cell viability incubated for 48 hrs by MTT assay; type: functional, cell-based; settings: MCF7, 48 h
[35] = Toxicity in Kunming mouse assessed as effect on kidney at 5 to 500 mg/kg, ip administered as single dose by macroscopic autopsy analysis; type: organism-based; settings: in vivo, dose 5-500 mg/kg
HL-60 [36] = test: Induction of apoptosis in human HL-60 cells assessed as necrotic cells at 5 uM by AnnexinV-FITC/PI staining based flow cytometry (reference value: 0.4%); type: functional
[37] = Toxicity in Kunming mouse assessed as effect on spleen at 5 to 500 mg/kg, ip administered as single dose by macroscopic autopsy analysis; type: organism-based; settings: in vivo, dose 5-500 mg/kg
[38] = Toxicity in Kunming mouse assessed as effect on lung at 5 to 500 mg/kg, ip administered as single dose by macroscopic autopsy analysis; type: organism-based; settings: in vivo, dose 5-500 mg/kg
HL-60 [39] = test: Induction of apoptosis in human HL-60 cells assessed as necrotic cells at 1 uM by AnnexinV-FITC/PI staining based flow cytometry (reference value: 0.4%); type: functional
[40] = Toxicity in ip dosed Kunming mouse administered as single dose; type: organism-based; settings: in vivo

In the case of `CC(C)=CCC[C@@]1(C)CC=C(CF)c2oc(C)cc2[C@@H]1/C=C/OC(=O)C=C(C)C`, the solubility [1] is reported as “Insoluble”, the inhibition [2] is reported as “Dose-Dependent Effect” and the Activity [3] is reported as “Non-Toxic”. The Activity (HL-60 [4]) was 6.29%, the inhibition [5] was “Dose-Dependent Effect” and the Activity (HL-60 [6]) was 4.98%. For the same compound, the Activity (HL-60 [7]) was “Dose-Dependent Effect”, the inhibition in vivo at 100 mg/kg (H22 [8]) was 42.4% and the inhibition in vivo at 100 mg/kg (H22 [9]) was 48.4%. The IC50 (HL-60 [10]) was 3.69 µM, the Activity [11] was “Non-Toxic” and the Activity (HL-60 [12]) was 2.87%. For the same compound, the IC50 (SW480) was 20 µM, the viability at 20 µM (HL-60 [13]) was 19.5% and the Activity (HL-60 [14]) was “Active”. The Activity (HL-60 [15]) was 50.4%, the viability at 10 µM (HL-60 [16]) was 38.4% and the Activity [17] was “Non-Toxic”. For the same compound, the inhibition (Reticulocyte) was 72.2%, the Activity (HL-60 [18]) was 1.57% and the Activity [19] was “Non-Toxic”. The IC50 [20] was 0.39 µM, the Activity [21] was “Non-Toxic” and the viability at 5 µM (HL-60 [22]) was 83%. For the same compound, the Activity (HL-60 [23]) was “Dose-Dependent Effect”, the IC50 (SMMC-7721) was 11.9 µM and the Activity [24] was “Non-Toxic”. For the same compound, the viability at 1 µM (HL-60 [25]) was 87.1%, the Activity [26] was “Non-Toxic” and the Activity (HL-60 [27]) was 11%. For the same compound, the Activity (HL-60 [28]) was 73.3%, the Activity (HL-60 [29]) was 3.45% and the Activity [30] was “Non-Toxic”. The Activity (HL-60 [31]) was “Active”, the Activity [32] was “Non-Toxic” and the Activity (HL-60 [33]) was 3.78%. For the same compound, the Activity (HL-60 [34]) was 12.8%, the IC50 (A549) was > 40 µM and the IC50 (MCF7) was 17.7 µM. The Activity [35] was “Non-Toxic”, the Activity (HL-60 [36]) was 0.22% and the Activity [37] was “Non-Toxic”. The Activity [38] was “Non-Toxic”, the Activity (HL-60 [39]) was 0.27% and the LD50 [40] was > 500 mg/kg.
